Each compound was assayed against Trypanosoma cruzi. Conditions: sf9.
Assay type: organism-based, CL Brener
For `[Cl-].[Na+]` [SODIUM CHLORIDE], the Ki was 810 µM. `O=S(=O)(O)OOS(=O)(=O)O` [SODIUM PERSULFATE] showed a Ki of 840 µM. For `[N-]=[N+]=[N-]` [SODIUM AZIDE], the Ki was 1120 µM. `[O-][Cl+3]([O-])([O-])O` [SODIUM PERCHLORATE] was tested, and the Ki was greater than 100000 µM. For `O=S([O-])O.[Na+]` [SODIUM BISULFITE], the Ki was 910 µM. `O=[Se](=O)(O)O` [SODIUM SELENATE] gave a Ki of 660 µM. For `CCN(CC)C(=S)S` [DITIOCARB SODIUM], the Ki was 5 µM. In the case of `O=S(=O)(O)OS(=O)(=O)O` [SODIUM PYROSULFATE], the Ki is reported as 760 µM. Work on `[Br-].[Na+]` [SODIUM BROMIDE] yielded a Ki of 730 µM. `[I-].[Na+]` [SODIUM IODIDE] was tested, and the Ki was 44 µM. Compound `O=[N+]([O-])[O-].[Na+]` [SODIUM NITRATE] has a Ki of 770 µM. `O=S(=O)([O-])[O-].[Na+].[Na+]` [SODIUM SULFATE ANHYDROUS] showed a Ki of 6900 µM. `O=S(=O)(O)ONOS(=O)(=O)O` [SODIUM IMINODISULFATE] showed a Ki of 7100 µM. `O=BOB(O)OB(O)OB=O` [SODIUM TETRABORATE] showed a Ki of 24300 µM. `O=C([O-])O.[Na+]` [SODIUM BICARBONATE] showed a Ki of 580 µM. With `OB(O)c1ccccc1` [PHENYLBORONIC ACID] the Ki was 860 µM. For `F[B-](F)(F)F.[Na+]` [SODIUM TETRAFLUOROBORATE], the Ki was greater than 100000 µM. `N#CO` [SODIUM CYANATE] showed a Ki of 80 µM. Work on `S` [SODIUM HYDROSULFIDE] yielded a Ki of 78 µM. Work on `NS(N)(=O)=O` [SULFAMIDE] yielded a Ki of 120 µM. With `NS(=O)(=O)O` [SULFAMATE] the Ki was 10600 µM. `[F-].[Na+]` [SODIUM FLUORIDE] showed a Ki of 900 µM. `O=C([O-])[O-].[Na+].[Na+]` [SODIUM CARBONATE] gave a Ki of 690 µM. With `N#C[SeH]` [SODIUM SELENOCYANATE] the Ki was 780 µM. Compound `O=NO` [SODIUM NITRITE] has a Ki of 700 µM. `O=[As](O)(O)c1ccccc1` [PHENYLARSONIC ACID] was tested, and the Ki was 620 µM. With `O=[Te](=O)(O)O` [SODIUM TELLURATE] the Ki was 710 µM.
